Tested on: 186277-243-T-J2-PDC spheroids with HUVEC/MSC, viability
Test: Anticancer human tumor 186277-243-T-J2-PDC patient-derived colon adenocarcinoma cell line growth inhibition [CLK]
Conditions: for IC50: curve of first compound; for viability, T/C: stronger effect = lower value
Procedure, shortened: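 Patient-derived tumor cells grown as complex spheroids with HUVEC endothelial cells and mesenchymal stem cells, treated with drug combinations. Concentrations descend in half-log steps from near clinical Cmax, or from 10 microM if Cmax unknown.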

[1] = second compound 0.0316 µM, first compound 0.00316 µM
[2] = second compound 0.0316 µM, first compound 0.01 µM
[3] = second compound 0.0316 µM, first compound 0.0316 µM
[4] = second compound 0.0316 µM, first compound 0.1 µM
[5] = second compound 0.1 µM, first compound 0.00316 µM
[6] = second compound 0.1 µM, first compound 0.01 µM
[7] = second compound 0.1 µM, first compound 0.0316 µM
[8] = second compound 0.1 µM, first compound 0.1 µM
[9] = second compound 0.316 µM, first compound 0.00316 µM
[10] = second compound 0.316 µM, first compound 0.01 µM
[11] = second compound 0.316 µM, first compound 0.0316 µM
[12] = second compound 0.316 µM, first compound 0.1 µM
[13] = second compound 1 µM, first compound 0.00316 µM
[14] = second compound 1 µM, first compound 0.01 µM
[15] = second compound 1 µM, first compound 0.0316 µM
[16] = second compound 1 µM, first compound 0.1 µM
[17] = second compound 3.16 µM, first compound 0.00316 µM
[18] = second compound 3.16 µM, first compound 0.01 µM
[19] = second compound 3.16 µM, first compound 0.0316 µM
[20] = second compound 3.16 µM, first compound 0.1 µM
[21] = second compound 10 µM, first compound 0.00316 µM
[22] = second compound 10 µM, first compound 0.01 µM
[23] = second compound 10 µM, first compound 0.0316 µM
[24] = second compound 10 µM, first compound 0.1 µM
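Note: compound exposure lasted seven days before readout.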
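Throughout, for viability, T/C: 100% = DMSO vehicle control wells.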

CCc1c2c(nc3ccc(O)cc13)-c1cc3c(c(=O)n1C2)COC(=O)[C@]3(O)CC + CN1CCN(c2cc(C(=O)Nc3cc4cc(-c5cnn(C)c5)ccc4cn3)ccn2)CC1
IC50 (second compound 0.0316 µM): 22.6 nM | IC50 (second compound 0.1 µM): 14.1 nM | IC50 (second compound 0.316 µM): < 3.16 nM | IC50 (second compound 1 µM): < 3.16 nM | IC50 (second compound 3.16 µM): < 3.16 nM | IC50 (second compound 10 µM): < 3.16 nM | viability, T/C [1]: 82.2% | viability, T/C [2]: 73.1% | viability, T/C [3]: 39.9% | viability, T/C [4]: 22.3% | viability, T/C (second compound 0.0316 µM, first compound 0.316 µM): 19.1% | viability, T/C (second compound 0.0316 µM, first compound 1 µM): 14.1% | viability, T/C [5]: 66.9% | viability, T/C [6]: 58.6% | viability, T/C [7]: 31.4% | viability, T/C [8]: 17.5% | viability, T/C (second compound 0.1 µM, first compound 0.316 µM): 14.3% | viability, T/C (second compound 0.1 µM, first compound 1 µM): 8.76% | viability, T/C [9]: 17.9% | viability, T/C [10]: 19% | viability, T/C [11]: 14.4% | viability, T/C [12]: 8.65% | viability, T/C (second compound 0.316 µM, first compound 0.316 µM): 2.67% | viability, T/C (second compound 0.316 µM, first compound 1 µM): 1.34% | viability, T/C [13]: 1.11% | viability, T/C [14]: 3.1% | viability, T/C [15]: 1.69% | viability, T/C [16]: 0.66% | viability, T/C (second compound 1 µM, first compound 0.316 µM): 1.14% | viability, T/C (second compound 1 µM, first compound 1 µM): 1.75% | viability, T/C [17]: 0.95% | viability, T/C [18]: 2.49% | viability, T/C [19]: 1.5% | viability, T/C [20]: 1.25% | viability, T/C (second compound 3.16 µM, first compound 0.316 µM): 2.1% | viability, T/C (second compound 3.16 µM, first compound 1 µM): 1.56% | viability, T/C [21]: 0.8% | viability, T/C [22]: 1.71% | viability, T/C [23]: 0.41% | viability, T/C [24]: 1.3% | viability, T/C (second compound 10 µM, first compound 0.316 µM): 0.67% | viability, T/C (second compound 10 µM, first compound 1 µM): 0.26%

Cn1ncnc1[C@H]1c2n[nH]c(=O)c3cc(F)cc(c23)N[C@@H]1c1ccc(F)cc1 + CN1CCN(c2cc(C(=O)Nc3cc4cc(-c5cnn(C)c5)ccc4cn3)ccn2)CC1
IC50 (second compound 0.0316 µM): > 100 nM | IC50 (second compound 0.1 µM): > 100 nM | IC50 (second compound 0.316 µM): < 0.316 nM | IC50 (second compound 1 µM): < 0.316 nM | IC50 (second compound 3.16 µM): < 0.316 nM | IC50 (second compound 10 µM): < 0.316 nM | viability, T/C (second compound 0.0316 µM, first compound 0.000316 µM): 86.9% | viability, T/C (second compound 0.0316 µM, first compound 0.001 µM): 104% | viability, T/C [1]: 108% | viability, T/C [2]: 114% | viability, T/C [3]: 95.1% | viability, T/C [4]: 113% | viability, T/C (second compound 0.1 µM, first compound 0.000316 µM): 73.9% | viability, T/C (second compound 0.1 µM, first compound 0.001 µM): 75.6% | viability, T/C [5]: 69% | viability, T/C [6]: 82.6% | viability, T/C [7]: 69.8% | viability, T/C [8]: 58.6% | viability, T/C (second compound 0.316 µM, first compound 0.000316 µM): 20.9% | viability, T/C (second compound 0.316 µM, first compound 0.001 µM): 19.2% | viability, T/C [9]: 22.7% | viability, T/C [10]: 20% | viability, T/C [11]: 21.9% | viability, T/C [12]: 19.8% | viability, T/C (second compound 1 µM, first compound 0.000316 µM): 2.81% | viability, T/C (second compound 1 µM, first compound 0.001 µM): 0.25% | viability, T/C [13]: 0.86% | viability, T/C [14]: 2.93% | viability, T/C [15]: 1.61% | viability, T/C [16]: 0.53% | viability, T/C (second compound 3.16 µM, first compound 0.000316 µM): 2.49% | viability, T/C (second compound 3.16 µM, first compound 0.001 µM): 0.69% | viability, T/C [17]: 1.36% | viability, T/C [18]: 1.46% | viability, T/C [19]: 2.26% | viability, T/C [20]: 0.62% | viability, T/C (second compound 10 µM, first compound 0.000316 µM): 1.78% | viability, T/C (second compound 10 µM, first compound 0.001 µM): 0.48% | viability, T/C [21]: 0.42% | viability, T/C [22]: 0.58% | viability, T/C [23]: 0.53% | viability, T/C [24]: 0.46%
